Consider 5 molecules from article PMC9326880 (Journal of Food and Drug Analysis, 2017).

The target of data set [1] is T1, P-gp (Homo sapiens, UniProt P08183).
The target in data set [2] is T1, P-gp. The source holds these as a separate data set.

Like-named read-outs stand apart in the source and are kept apart here.

T1 sequence (P08183 whole entry): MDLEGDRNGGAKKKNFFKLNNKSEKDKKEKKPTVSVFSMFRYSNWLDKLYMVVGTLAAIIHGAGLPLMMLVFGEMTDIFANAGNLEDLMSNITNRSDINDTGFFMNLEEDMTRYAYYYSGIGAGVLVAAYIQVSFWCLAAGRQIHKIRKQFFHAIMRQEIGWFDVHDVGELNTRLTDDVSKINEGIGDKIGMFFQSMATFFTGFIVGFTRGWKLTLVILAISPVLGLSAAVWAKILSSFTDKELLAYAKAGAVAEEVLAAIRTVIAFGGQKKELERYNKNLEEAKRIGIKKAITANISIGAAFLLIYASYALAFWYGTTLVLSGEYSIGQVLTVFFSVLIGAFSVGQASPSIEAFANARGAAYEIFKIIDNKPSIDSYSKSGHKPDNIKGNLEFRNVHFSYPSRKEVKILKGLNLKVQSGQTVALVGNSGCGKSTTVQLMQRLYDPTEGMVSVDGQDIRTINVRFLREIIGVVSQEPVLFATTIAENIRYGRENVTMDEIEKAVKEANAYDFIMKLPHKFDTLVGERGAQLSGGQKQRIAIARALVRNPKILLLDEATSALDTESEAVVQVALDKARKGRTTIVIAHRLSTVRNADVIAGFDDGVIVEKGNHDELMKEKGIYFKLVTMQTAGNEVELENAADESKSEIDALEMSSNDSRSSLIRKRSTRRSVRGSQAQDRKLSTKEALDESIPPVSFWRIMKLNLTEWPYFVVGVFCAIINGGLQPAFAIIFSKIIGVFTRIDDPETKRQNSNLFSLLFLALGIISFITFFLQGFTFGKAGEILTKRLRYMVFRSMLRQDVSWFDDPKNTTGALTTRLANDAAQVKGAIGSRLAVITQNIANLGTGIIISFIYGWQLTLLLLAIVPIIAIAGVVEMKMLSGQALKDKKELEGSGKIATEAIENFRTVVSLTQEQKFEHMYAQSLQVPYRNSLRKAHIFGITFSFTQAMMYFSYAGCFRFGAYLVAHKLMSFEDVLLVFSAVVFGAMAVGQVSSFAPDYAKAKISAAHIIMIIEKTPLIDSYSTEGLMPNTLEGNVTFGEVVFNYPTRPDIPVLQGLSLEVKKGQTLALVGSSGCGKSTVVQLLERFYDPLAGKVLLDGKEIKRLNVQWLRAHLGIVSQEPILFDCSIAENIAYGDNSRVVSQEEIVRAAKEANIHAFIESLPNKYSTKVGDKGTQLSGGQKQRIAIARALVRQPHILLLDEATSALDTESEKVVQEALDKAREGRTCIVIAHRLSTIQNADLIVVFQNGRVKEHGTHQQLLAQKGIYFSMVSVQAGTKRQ

As to `c1c2c(cc3c1OCO3)-c1cc3ccc4c(c3c[n+]1CC2)OCO4` [coptisine, Coptisine], in the data set with LS 180 cells, the “Influence on viability of LS 180 cells (MTT)” value (from here on “Influence on viability”) is “no toxic influences”. The “Decrease of intracellular accumulation of rhodamine 123” value (“Decrease” for short) on P-gp [1] is given as 24–39%.
As for `COc1ccc2cc3[n+](cc2c1OC)CCc1cc2c(cc1-3)OCO2` [berberine, Berberine], the “Influence on viability” value in the data set with LS 180 cells is on record as “no toxic influences”. Further, the “Decrease” value at P-gp [1] is given as 24–39%.
Turning to `COc1ccc(CCN(C)CCCC(C#N)(c2ccc(OC)c(OC)c2)C(C)C)cc1OC` (stereo not shown) [verapamil], the “Influence on viability” value in the data set on LS 180 cells was “no toxic influences”. The “Enhancement of intracellular accumulation of rhodamine 123” value at P-gp [1] was determined as 32.5%.
Take `COc1cc2c(cc1OC)-c1cc3ccc(OC)c(OC)c3c[n+]1CC2` [palmatine, Palmatine]: in the data set on LS 180 cells, the “Influence on viability” value was “no toxic influences”. For the same molecule, the “Decrease” value at P-gp [1] is given as 16–18%.
Regarding `CO[C@H]1/C=C/O[C@@]2(C)Oc3c(C)c(O)c4c(O)c(c(/C=N/N5CCN(C)CC5)c(O)c4c3C2=O)NC(=O)/C(C)=C\C=C\[C@H](C)[C@H](O)[C@@H](C)[C@@H](O)[C@@H](C)[C@H](OC(C)=O)[C@@H]1C` [rifampin, Rifampin], the “Influence on viability” value in the data set with LS 180 cells was “no toxic influences”. In addition, the “Decrease” value on P-gp [2] is on record as 22.7%.
